Laboratory results published in patent publication US20250101028A1, “HETEROCYCLIC COMPOUNDS, COMPOSITIONS THEREOF, AND METHODS OF TREATMENT THEREWITH” (BeiGene, Ltd., priority 2022, published 2025).

What follows are compounds tested against T1, GST-tagged GDP-loaded KRAS G12V (amino acids 1-169) (Homo sapiens, UniProt P01116, G12V) (assay: KRAS G12V probe displacement assay (TR-FRET)). Details: displacement of biotinylated probe 2 from GDP-loaded KRAS G12V.
T1 construct: GST-tagged GDP-loaded KRAS G12V (amino acids 1-169); made in house; host or cells: E. coli
T1 sequence (P01116 1-169 isoform P01116-2 G12V): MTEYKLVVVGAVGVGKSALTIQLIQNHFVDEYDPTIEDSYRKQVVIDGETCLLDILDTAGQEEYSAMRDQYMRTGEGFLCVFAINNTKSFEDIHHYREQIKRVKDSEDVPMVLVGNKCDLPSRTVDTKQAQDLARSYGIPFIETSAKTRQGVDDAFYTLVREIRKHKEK
Type: binding
Procedure: KRAS WT and KRAS G12V Probe Displacement Assay
This assay was used to identify compounds which bind to GDP-loaded KRAS protein and are able to displace a biotinylated probe occupying the KRAS binding site. GST-tagged GDP-loaded WT KRAS (amino acids 1-169) and GST-tagged GDP-loaded KRAS G12V (amino acids 1-169) were expressed in E. coli and purified in house. All protein and reaction solutions were prepared in assay buffer containing 50 mM HEPES pH7.5, 50 mM NaCl, 1 mM MgCl2, 1 mM TCEP, 0.01% BSA, and 0.008% Brij-35. Purified WT KRAS (3 nM final concentration) or KRAS G12V protein (2 nM final concentration) was incubated with a 3-fold serially diluted compound in the assay plate (384 well microplate, black, Corning). Plates are incubated at 24° C. for 1 hr. Following the incubation, biotinylated probe 1 (60 nM final assay concentration) for WT KRAS and biotinylated probe 2 (2.5 nM final assay concentration) for KRAS G12V was added to the assay plate, respectively. After 1 hr incubation at 24° C., Mab Anti-GST-Tb cryptate (Cisbio) and Streptavidin-XL665 (Cisbio) were added and further incubated at 24° C. for another 1 hr. The TR-FRET signals (ex337 nm, em665 nm/620 nm) were read on BMG PHERAstar FSX instrument. The inhibition percentage of KRAS protein binding with biotinylated probe in presence of increasing concentrations of compounds was calculated based on the ratio of fluorescence at 665 nm to that at 620 nm. The IC50 value of each compound was calculated from fitting the data to the four-parameter logistic model by Dotmatics.
`Nc1nc2c(-c3c(C(F)(F)F)cc4c(N[C@H]5C[C@H](CO)C5)nc(OC[C@@]56CCCN5C[C@H](F)C6)nc4c3F)ccc(F)c2s1` [Example 21, ((trans)-3-((7-(2-amino-7-fluorobenzo[d]thiazol-4-yl)-8-fluoro-2-(((2R,7aS)-2-fluorotetrahydro-1H-pyrrolizin-7a(5H)-yl)methoxy)-6-(trifluoromethyl)quinazolin-4-yl)amino)cyclobutyl)methanol] gave an IC50 of 4.1 nM.
In the case of `Nc1cc(Cl)c(C(F)(F)F)c(-c2ncc3c(N4CCOCC4)nc(OC[C@@]45CCCN4C[C@H](F)C5)nc3c2F)c1` [Example 113, 3-chloro-5-(8-fluoro-2-(((2R,7aS)-2-fluorotetrahydro-1H-pyrrolizin-7a(5H)-yl)methoxy)-4-morpholinopyrido[4,3-d]pyrimidin-7-yl)-4-(trifluoromethyl)aniline], the IC50 is reported as 11 nM.
`N#CC1(F)CCN(c2nc(OC[C@@]34CCCN3C[C@H](F)C4)nc3c(F)c(-c4ccc(F)c5sc(N)nc45)c(C(F)(F)F)cc23)CC1` [Example 70, 1-(7-(2-amino-7-fluorobenzo[d]thiazol-4-yl)-8-fluoro-2-(((2R,7aS)-2-fluorotetrahydro-1H-pyrrolizin-7a(5H)-yl)methoxy)-6-(trifluoromethyl)quinazolin-4-yl)-4-fluoropiperidine-4-carbonitrile] was tested, and the IC50 was 7.5 nM.
`CC[C@H]1CCCN1c1nc(OC[C@@]23CCCN2C[C@H](F)C3)nc2c(F)c(-c3ccc(F)c4sc(N)nc34)c(C(F)(F)F)cc12` [Example 59, 4-(4-((S)-2-ethylpyrrolidin-1-yl)-8-fluoro-2-(((2R,7aS)-2-fluorotetrahydro-1H-pyrrolizin-7a(5H)-yl)methoxy)-6-(trifluoromethyl)quinazolin-7-yl)-7-fluorobenzo[d]thiazol-2-amine] was tested, and the IC50 was 27 nM.
With `N#C[C@H]1CCCN(c2nc(OC[C@@]34CCCN3C[C@H](F)C4)nc3c(F)c(-c4ccc(F)c5sc(N)nc45)c(C(F)(F)F)cc23)C1` [Example 77, (3S)-1-(7-(2-amino-7-fluorobenzo[d]thiazol-4-yl)-8-fluoro-2-(((2R,7aS)-2-fluorotetrahydro-1H-pyrrolizin-7a(5H)-yl)methoxy)-6-(trifluoromethyl)quinazolin-4-yl)piperidine-3-carbonitrile] the IC50 was 17 nM.
With `Nc1nc2c(-c3c(C(F)(F)F)cc4c(N5CC(F)(F)C5)nc(OC[C@@]56CCCN5C[C@H](F)C6)nc4c3F)ccc(F)c2s1` [Example 38, 4-(4-(3,3-difluoroazetidin-1-yl)-8-fluoro-2-(((2R,7aS)-2-fluorotetrahydro-1H-pyrrolizin-7a(5H)-yl)methoxy)-6-(trifluoromethyl)quinazolin-7-yl)-7-fluorobenzo[d]thiazol-2-amine] the IC50 was 25 nM.
`COc1cc(N)nc(-c2c(Cl)cc3c(N4CCC(C#N)CC4)nc(OC[C@@]45CCCN4C[C@H](F)C5)nc3c2F)c1C(F)(F)F` [Example 108, 1-(7-(6-amino-4-methoxy-3-(trifluoromethyl)pyridin-2-yl)-6-chloro-8-fluoro-2-(((2R,7aS)-2-fluorotetrahydro-1H-pyrrolizin-7a(5H)-yl)methoxy)quinazolin-4-yl)piperidine-4-carbonitrile] was tested, and the IC50 was greater than 1000 nM.
`Nc1cc(Cl)c(C(F)(F)F)c(-c2ncc3c(N4CCC5CC5(O)C4)nc(OC[C@@]45CCCN4C[C@H](F)C5)nc3c2F)c1` (stereo partly drawn) [Example 131, 3-(7-(5-amino-3-chloro-2-(trifluoromethyl)phenyl)-8-fluoro-2-(((2R,7aS)-2-fluorotetrahydro-1H-pyrrolizin-7a(5H)-yl)methoxy)pyrido[4,3-d]pyrimidin-4-yl)-3-azabicyclo[4.1.0]heptan-1-ol] was tested, and the IC50 was 23 nM.
In the case of `Nc1nc2c(-c3c(C(F)(F)F)cc4c(NC5CC(F)(F)C5)nc(OC[C@@]56CCCN5C[C@H](F)C6)nc4c3F)ccc(F)c2s1` [Example 17, 4-(4-((3,3-difluorocyclobutyl)amino)-8-fluoro-2-(((2R,7aS)-2-fluorotetrahydro-1H-pyrrolizin-7a(5H)-yl)methoxy)-6-(trifluoromethyl)quinazolin-7-yl)-7-fluorobenzo[d]thiazol-2-amine], the IC50 is reported as 43 nM.
For `Nc1nc2c(-c3c(C(F)(F)F)cc4c(N5CCCC5)nc(OC[C@@]56CCCN5C[C@H](F)C6)nc4c3F)ccc(F)c2s1` [Example 50, 7-fluoro-4-(8-fluoro-2-(((2R,7aS)-2-fluorotetrahydro-1H-pyrrolizin-7a(5H)-yl)methoxy)-4-(pyrrolidin-1-yl)-6-(trifluoromethyl)quinazolin-7-yl)benzo[d]thiazol-2-amine], the IC50 was 13 nM.
`CC[C@@H]1COCCN1c1nc(OC[C@@]23CCCN2C[C@H](F)C3)nc2c(F)c(-c3cc(N)cc(Cl)c3C(F)(F)F)ncc12` [Example 117, 3-chloro-5-(4-((R)-3-ethylmorpholino)-8-fluoro-2-(((2R,7aS)-2-fluorotetrahydro-1H-pyrrolizin-7a(5H)-yl)methoxy)pyrido[4,3-d]pyrimidin-7-yl)-4-(trifluoromethyl)aniline] was tested, and the IC50 was 12 nM.
Work on `COC1CC1Nc1nc(OC[C@@]23CCCN2C[C@H](F)C3)nc2c(F)c(-c3ccc(F)c4sc(N)nc34)c(C(F)(F)F)cc12` (stereo partly drawn) [Example 6, 7-fluoro-4-(8-fluoro-2-(((2R,7aS)-2-fluorotetrahydro-1H-pyrrolizin-7a(5H)-yl)methoxy)-4-((2-methoxycyclopropyl)amino)-6-(trifluoromethyl)quinazolin-7-yl)benzo[d]thiazol-2-amine] yielded an IC50 of 54 nM.
Work on `C[C@H]1COC[C@H](C)N1c1nc(OC[C@@]23CCCN2C[C@H](F)C3)nc2c(F)c(-c3cc(N)cc(Cl)c3C(F)(F)F)ncc12` [Example 118, 3-chloro-5-(4-((3S,5S)-3,5-dimethylmorpholino)-8-fluoro-2-(((2R,7aS)-2-fluorotetrahydro-1H-pyrrolizin-7a(5H)-yl)methoxy)pyrido[4,3-d]pyrimidin-7-yl)-4-(trifluoromethyl)aniline] yielded an IC50 of 23 nM.
`CC1CC(C#N)CCN1c1nc(OC[C@@]23CCCN2C[C@H](F)C3)nc2c(F)c(-c3ccc(F)c4sc(N)nc34)c(C(F)(F)F)cc12` (relative stereo) [Example 74, 1-(7-(2-amino-7-fluorobenzo[d]thiazol-4-yl)-8-fluoro-2-(((2R,7aS)-2-fluorotetrahydro-1H-pyrrolizin-7a(5H)-yl)methoxy)-6-(trifluoromethyl)quinazolin-4-yl)-trans-2-methylpiperidine-4-carbonitrile] gave an IC50 of 1.9 nM.
`CC1CN(c2nc(OC[C@@]34CCCN3C[C@H](F)C4)nc3c(F)c(-c4cc(N)cc(Cl)c4C(F)(F)F)ncc23)CCC1C#N` (stereo partly drawn) [Example 123, 1-(7-(5-amino-3-chloro-2-(trifluoromethyl)phenyl)-8-fluoro-2-(((2R,7aS)-2-fluorotetrahydro-1H-pyrrolizin-7a(5H)-yl)methoxy)pyrido[4,3-d]pyrimidin-4-yl)-3-methylpiperidine-4-carbonitrile] gave an IC50 of 22 nM.
Work on `Nc1nc2c(-c3c(C(F)(F)F)cc4c(N5CCC(O)CC5)nc(OC[C@@]56CCCN5C[C@H](F)C6)nc4c3F)ccc(F)c2s1` [Example 78, 1-(7-(2-amino-7-fluorobenzo[d]thiazol-4-yl)-8-fluoro-2-(((2R,7aS)-2-fluorotetrahydro-1H-pyrrolizin-7a(5H)-yl)methoxy)-6-(trifluoromethyl)quinazolin-4-yl)piperidin-4-ol] yielded an IC50 of 3.3 nM.
